Experimental data as given in patent US20230096028A1, “BICYCLIC HETEROCYCLYL COMPOUNDS AND USES THEREOF” (Revolution Medicines, Inc., priority 2019, published 2023).
pIC50, pKd: −log10 of the molar value. Like-named read-outs stand apart in the source and are kept apart here.

What was measured:
[1] = target: T1, SOS1 catalytic domain (residues 564-1049) (Homo sapiens, UniProt Q07889); experiment: Mode of Action Assay: inhibition of SOS1 nucleotide exchange activity (SOS1 TR-FRET IC50 Assay)
T1 sequence (Q07889 564-1049): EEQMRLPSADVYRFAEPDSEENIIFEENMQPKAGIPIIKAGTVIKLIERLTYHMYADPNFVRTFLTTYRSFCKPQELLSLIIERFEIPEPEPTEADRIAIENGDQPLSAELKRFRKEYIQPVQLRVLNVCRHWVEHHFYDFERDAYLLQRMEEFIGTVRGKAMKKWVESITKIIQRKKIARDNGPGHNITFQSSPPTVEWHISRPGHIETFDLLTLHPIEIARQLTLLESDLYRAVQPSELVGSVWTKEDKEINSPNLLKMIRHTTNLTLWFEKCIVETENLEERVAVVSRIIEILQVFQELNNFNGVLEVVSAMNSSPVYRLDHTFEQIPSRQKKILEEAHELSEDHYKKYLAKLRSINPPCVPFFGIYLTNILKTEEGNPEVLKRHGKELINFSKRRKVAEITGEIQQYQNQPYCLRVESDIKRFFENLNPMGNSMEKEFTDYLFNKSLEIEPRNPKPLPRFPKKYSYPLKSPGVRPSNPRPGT

[2] = target: T1, SOS1 catalytic domain (residues 564-1049); experiment: Potency Assay: binding affinity to SOS1 using Surface Plasmon Resonance (SPR); design: SOS1 catalytic domain (residues 564-1049) immobilized on a sensor chip; conditions: immobilized SOS1 catalytic domain (residues 564-1049), read-out: SOS1 SPR Equilibrium Kd
Outline: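 Avi-tagged SOS1 catalytic domain captured on streptavidin chip (~6000 RU) in 0.01 M HEPES, 0.15 M NaCl, 0.05% P20. Compound dilution series flowed at 50 μL/min for association, then buffer for dissociation, with double reference subtraction. Kd derived from end-of-association binding response plotted against concentration.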

[3] = tested on: PC-9 cells (EGFR Ex19Del); experiment: Potency Assay: pERK (SOS1 pERK IC50 Assay, AlphaLISA SureFire Ultra p-ERK1/2); assay type: cell-based; conditions: Homo sapiens, read-out: SOS1 pERK IC50
Outline: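 PC-9 (EGFR Ex19Del) cells plated overnight, then treated 1 h at 37° C. with 10-point 3-fold dilutions (top 10 μM final) in duplicate. Lysate pERK1/2 measured by AlphaLISA SureFire Ultra; IC50 from 4-parameter sigmoidal fit.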

[4] = PC-9 cells (EGFR Ex19Del), 1 hour incubation, AlphaLISA p-ERK1/2

Structure (SMILES)	pIC50 [1]	pKd [2]	pIC50 [3, 4]	pIC50 ([3]; PC-9, 1 h)
C[C@@H](Nc1nc(Cl)nc2c1CN(C(=O)N1CCNCC1)C2)c1cc(N)cc(C(F)(F)F)c1 [Example 356]	> 6.00	> 6.40	> 6.00	
CC1CNCCN1C(=O)N1Cc2nc(Cl)nc(N[C@H](C)c3cccc(C(F)F)c3F)c2C1 (stereo partly drawn) [Example 391]	> 6.00	> 6.40	> 6.00	
C[C@@H](Nc1nc(Cl)nc2c1CN(C(=O)C1CNCCOC1)C2)c1cccc(C(F)F)c1F (stereo partly drawn) [Example 293]	> 6.00	> 6.40	> 6.00	
COC1(C(=O)N2Cc3nc(Cl)nc(N[C@H](C)c4cccc(C(F)(F)F)c4)c3C2)CCOCC1 [Example 227]	> 6.00	> 6.40	> 6.00	
C[C@@H](Nc1nc(Cl)nc2c1CN(C(=O)N1CCOCC1)C2)c1cccc(C(F)F)c1 [Example 486, 2-chloro-N-[(1R)-1-[3-(difluoromethyl)phenyl]ethyl]-6-(morpholine-4-carbonyl)-5H,6H,7H-pyrrolo[3,4-d]pyrimidin-4-amine]	> 6.00	> 6.40	< 6.00	
C[C@@H](Nc1nc(Br)nc2c1CN(C(=O)N1CCOCC1)C2)c1cc(N)cc(C(F)(F)F)c1 [Example 131, N-[(1R)-1-[3-amino-5-(trifluoro-methyl)phenyl]ethyl]-2-bromo-6-(morpholine-4-carbonyl)-5H,6H,7H-pyrrolo[3,4-d]pyrimidin-4-amine]	> 6.00	> 6.40	> 6.00	
C[C@@H](Nc1nc(Cl)nc2c1CN(C(=O)C1(C#N)CCNCC1)C2)c1cccc(C(F)F)c1F [Example 294]	> 6.00	> 6.40	> 6.00	
C[C@@H](Nc1nc(Cl)nc2c1CN(C(=O)N1CCOCC1)C2)c1cccc(C(F)(F)COC2COC2)c1 [Example 479, 2-chloro-N-[(1R)-1-{3-[1,1-difluoro-2-(oxetan-3-yloxy)ethyl]phenyl}ethyl]-6-(morpholine-4-carbonyl)-5H,6H,7H-pyrrolo[3,4-d]pyrimidin-4-amine]	> 6.00	> 6.40	> 6.00	
C[C@@H](Nc1nc(Cl)nc2c1CN(C(=O)N1CCOc3ncccc31)C2)c1cccc(C(F)(F)F)c1 [Example 366]	> 6.00	> 6.40	> 6.00	
C[C@@H](Nc1nc(Cl)nc2c1CN(C(=O)C1CC1)CC2)c1cc(N)cc(C(F)(F)F)c1 [Example 219]	> 6.00	> 6.40	> 6.00	
C[C@@H](Nc1nc(Cl)nc2c1CN(C(=O)N1CCCC13CCNC3)C2)c1cccc(C(F)F)c1F (stereo partly drawn) [Example 382]	> 6.00	> 6.40	< 6.00	
C[C@@H](Nc1nc(Cl)nc2c1CN(C(=O)N1CCOCC1)C2)c1cccc(C(C)(F)F)c1F [Example 478, 2-chloro-N-[(1R)-1-[3-(1,1-difluoroethyl)-2-fluorophenyl]ethyl]-6-(morpholine-4-carbonyl)-5H,6H,7H-pyrrolo[3,4-d]pyrimidin-4-amine]	> 6.00	> 6.40	> 6.00	
C[C@@H](Nc1nc(Cl)nc2c1CN(C(=O)c1csc(C3CCNCC3)n1)C2)c1cc(N)cc(C(F)(F)F)c1 [Example 92]	< 6.00	> 6.40	< 6.00	
C[C@@H](Nc1nc(Cl)nc2c1CC(N1CCOCC1)CC2)c1cccc(C(F)(F)F)c1 (stereo partly drawn) [Example 435]	> 6.00	> 6.40	< 6.00	
C[C@@H](Nc1nc(Cl)nc2c1CN(C(=O)N1CC3CCC1CN3C)C2)c1cccc(C(F)F)c1F (stereo partly drawn) [Example 415]	> 6.00	> 6.40	> 6.00	
C[C@@H]1OCC2(CCN(C(=O)N3Cc4nc(Cl)nc(N[C@H](C)c5cccc(C(F)F)c5F)c4C3)CC2)[C@@H]1N [Example 424]	> 6.00	> 6.40	< 6.00	

Structure (SMILES)	pIC50 [1]	pKd [2]	pIC50 [3, 4]	pIC50 ([3]; PC-9, 1 h)
C[C@@H](Nc1nc(Cl)nc2c1CN(C(=O)c1ncccn1)C2)c1cc(N)cc(C(F)(F)F)c1 [Example 70]	< 6.00	< 6.40	> 6.00	
C[C@@H](Nc1nc(Cl)nc2c1CN(C(=O)N1CC3CCC(C1)N3C)C2)c1cccc(C(F)F)c1F [Example 429]	> 6.00	> 6.40	> 6.00	
COC1(C(=O)N2Cc3nc(Cl)nc(N[C@H](C)c4cccc(C(F)F)c4F)c3C2)CCN(C2COC2)CC1 [Example 325]	> 6.00	> 6.40	> 6.00	
COc1cccnc1C(=O)N1CCc2nc(Cl)nc(N[C@H](C)c3cc(N)cc(C(F)(F)F)c3)c2C1 [Example 232]	< 6.00	< 6.40	< 6.00	
C[C@@H](Nc1nc(Cl)nc2c1CN(C(=O)c1ccnnc1)C2)c1cc(N)cc(C(F)(F)F)c1 [Example 78]	> 6.00	> 6.40	> 6.00	
C[C@@H](Nc1nc(Cl)nc2c1CN(C(=O)N1CCC(O)CC1)C2)c1cccc(C(F)F)c1F [Example 395]	> 6.00	> 6.40	> 6.00	
C[C@@H](Nc1nc(Cl)nc2c1CN(C(=O)N1CCCNCC1)C2)c1cccc(C(F)F)c1F [Example 400]	> 6.00	> 6.40	> 6.00	
C[C@@H](Nc1nc(Cl)nc2c1CN(C(=O)C1(C)CCOCC1)C2)c1cccc(C(F)(F)CO)c1 [Example 240]	> 6.00	> 6.40	> 6.00	
C[C@@H](Nc1nc(CN)nc2c1CN(C(=O)N1CCOCC1)C2)c1cc(N)cc(C(F)(F)F)c1 [Example 130, N-[(1R)-1-[3-amino-5-(trifluoromethyl)phenyl]ethyl]-2-(aminomethyl)-6-(morpholine-4-carbonyl)-5H,6H,7H-pyrrolo[3,4-d]pyrimidin-4-amine]	> 6.00	> 6.40	< 6.00	
C[C@@H](Nc1nc(Cl)nc2c1CN(S(=O)(=O)C1COC1)CC2)c1cc(N)cc(C(F)(F)F)c1 [Example 453]	> 6.00	> 6.40	> 6.00	
C[C@@H](Nc1nc(Cl)nc2c1CN(C(=O)c1ncccn1)CC2)c1cc(N)cc(C(F)(F)F)c1 [Example 236]	< 6.00	< 6.40	< 6.00	
C[C@@H](Nc1nc(Cl)nc2c1CN(C(=O)N1CCOCC1)C2)c1cccc(C(F)(F)COC2CC2)c1F [Example 469, [2-chloro-4-[[(1R)-1-[3-[2-(cyclopropoxy)-1,1-difluoro-ethyl]-2-fluoro-phenyl]ethyl]amino]-5,7-dihydropyrrolo[3,4-d]pyrimidin-6-yl]-morpholino-methanone]	> 6.00	> 6.40		> 6.00
COC1(C(=O)N2Cc3nc(Cl)nc(N[C@H](C)c4cccc(C(F)F)c4F)c3C2)CN(C)C1 [Example 324]	> 6.00	> 6.40	> 6.00	
C[C@@H](Nc1nc(Cl)nc2c1CN(C(=O)C1(F)CN(C3COC3)C1)C2)c1cccc(C(F)F)c1F [Example 329]	> 6.00	> 6.40	> 6.00	
C[C@@H](Nc1nc(Cl)nc2c1CN(S(=O)(=O)C1CCOCC1)C2)c1cc(N)cc(C(F)(F)F)c1 [Example 51]	> 6.00	> 6.40	> 6.00	
